Measurements reported in the supplement of paper PMC4862054.

How the values were obtained:
Settings in all cases: incubation time: 72 h
[1] = system: HCC1143; experiment: normalised response (% of control), CellTiter-Glo; higher = more viable cells (100 = DMSO, 0 = benzethonium chloride kill control)
Summary of the method: (§1)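 Each entry is the normalised signal at a single concentration within a series. The series comprised 5 concentrations in 10-fold steps over a compound-specific 10,000-fold range, placed in 384-well plates into which breast cancer cell lines were seeded as 20 µl suspension and incubated 72 h. CellTox Green (485/520 nm) fluorescence and then CellTiter-Glo luminescence were read, with signals normalised per plate to 0.1 % DMSO (100) and a positive kill control (0).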

[2] = system: SK-BR-3; experiment: as above
Summary of the method: as §1

[3] = system: CAL-148; experiment: as above
Summary of the method: as §1

[4] = system: Hs578T; experiment: as above
Summary of the method: as §1

[5] = system: MCF-10A; experiment: as above
Summary of the method: as §1

[6] = system: CAL-51; experiment: as above
Summary of the method: as §1

[7] = system: CAL-85-1; experiment: as above
Summary of the method: as §1

[8] = system: MDA-MB-468; experiment: as above
Summary of the method: as §1

[9] = system: BT-474; experiment: as above
Summary of the method: as §1

[10] = system: MDA-MB-436; experiment: as above
Summary of the method: as §1

[11] = system: MDA-MB-453; experiment: as above
Summary of the method: as §1

[12] = system: HCC1599; experiment: as above
Summary of the method: as §1

[13] = system: MDA-MB-231; experiment: as above
Summary of the method: as §1

[14] = system: DU-4475; experiment: as above
Summary of the method: as §1

[15] = system: CAL-120; experiment: as above
Summary of the method: as §1

[16] = system: HCC1937; experiment: as above
Summary of the method: as §1

[17] = system: HDQ-P1; experiment: as above
Summary of the method: as §1

[18] = system: MFM-223; experiment: as above
Summary of the method: as §1

[19] = system: BT-549; experiment: as above
Summary of the method: as §1

[20] = system: CAL-148; experiment: normalised response (% of control), CellTox Green; higher = less cell death (100 = DMSO, 0 = benzethonium chloride kill control)
Summary of the method: as §1

[21] = system: Hs578T; experiment: as above
Summary of the method: as §1

[22] = system: MCF-10A; experiment: as above
Summary of the method: as §1

[23] = system: CAL-51; experiment: as above
Summary of the method: as §1

[24] = system: CAL-85-1; experiment: as above
Summary of the method: as §1

[25] = system: MDA-MB-468; experiment: as above
Summary of the method: as §1

[26] = system: BT-474; experiment: as above
Summary of the method: as §1

[27] = system: MDA-MB-436; experiment: as above
Summary of the method: as §1

[28] = system: MDA-MB-453; experiment: as above
Summary of the method: as §1

[29] = system: HCC1599; experiment: as above
Summary of the method: as §1

[30] = system: MDA-MB-231; experiment: as above
Summary of the method: as §1

[31] = system: DU-4475; experiment: as above
Summary of the method: as §1

[32] = system: CAL-120; experiment: as above
Summary of the method: as §1

[33] = system: HCC1937; experiment: as above
Summary of the method: as §1

[34] = system: HDQ-P1; experiment: as above
Summary of the method: as §1

[35] = system: MFM-223; experiment: as above
Summary of the method: as §1

[36] = system: BT-549; experiment: as above
Summary of the method: as §1

[37] = system: HCC1143; experiment: as above
Summary of the method: as §1

SMILES	normalised response [1]	normalised response [2]	normalised response [3]	normalised response [4]	normalised response [5]	normalised response [6]	normalised response [7]	normalised response [8]	normalised response [9]	normalised response [10]	normalised response [11]	normalised response [12]	normalised response [13]	normalised response [14]	normalised response [15]	normalised response [16]	normalised response [17]	normalised response [18]	normalised response [19]	normalised response [20]	normalised response [21]	normalised response [22]	normalised response [23]	normalised response [24]	normalised response [25]	normalised response [26]	normalised response [27]	normalised response [28]	normalised response [29]	normalised response [30]	normalised response [31]	normalised response [32]	normalised response [33]	normalised response [34]	normalised response [35]	normalised response [36]	normalised response [37]
CCN(CC)CCCC(C)Nc1c2ccc(Cl)cc2nc2ccc(OC)cc12 (centres undefined) [Mepacrine] (5000 nM)	98%	102%	88.7%	104%	108%	113%	101%	94.4%	104%	103%	102%	101%	98.1%	97.3%	110%	101%	112%	92.5%	93%	71.8%	84.3%	99.3%	103%	106%	89.3%	97.2%	99.8%	107%	98%	81.8%	102%	101%	105%	111%	97.6%	57.4%	–
C[C@H]1C[C@@H]2[C@H]([C@@H](O)C[C@@]3(C)[C@H]2CC[C@]3(O)C(=O)CO)[C@@]2(C)C=CC(=O)C=C12 [Methylprednisolone] (1000 nM)	109%	94.5%	108%	114%	96.7%	108%	117%	119%	151%	105%	101%	105%	159%	100%	80.5%	97.9%	83.2%	106%	100%	107%	105%	108%	108%	104%	109%	98.6%	–	98.5%	109%	142%	103%	101%	127%	105%	–	131%	108%
O=C(O)C(=O)O.[NH-][C@@H]1CCCC[C@H]1[NH-].[Pt+2] [Oxaliplatin] (1000 nM)	95.5%	92.8%	82.5%	104%	96.5%	128%	95.9%	91.1%	97.7%	106%	89.2%	100%	97%	94.4%	96.9%	99.5%	106%	92.3%	105%	–	63.9%	107%	108%	102%	157%	95.9%	95.7%	106%	93.9%	98.2%	98.1%	102%	97.7%	102%	85.6%	121%	101%
Cc1cnc(NC(=O)Nc2cc(Br)c(C)cc2OC[C@@H]2CNCCO2)cn1 [Rabusertib] (100 nM)	106%	109%	107%	98.7%	112%	72.5%	99%	101%	103%	113%	88.1%	108%	104%	99.1%	98.1%	92.4%	105%	100%	104%	108%	55.6%	105%	85.5%	102%	128%	102%	110%	106%	103%	118%	106%	99.9%	128%	80.4%	–	123%	97.3%
CNC(=O)c1cc(Oc2ccc(NC(=O)Nc3cc(C(C)(C)C)nn3-c3ccc4ncccc4c3)c(F)c2)ccn1 [Rebastinib] (100 nM)	110%	104%	105%	114%	119%	120%	101%	113%	97%	110%	101%	110%	90%	101%	92.2%	108%	114%	65.3%	111%	84%	98.8%	–	105%	103%	118%	98.6%	97.3%	101%	99.2%	90.2%	103%	101%	112%	94.4%	95.3%	95%	113%
